Data: patent US20160137610A1, “Compounds that Modulate EGFR Activity and Methods for Treating or Preventing Conditions Therewith” (Gatekeeper Pharmaceuticals, Inc., priority 2010, published 2016)

How the values were obtained:
Format in all cases: cell-based
[1] = molecular target: Ba/F3 cells EGFR Del 19/T790M (Homo sapiens, UniProt P00533, DEL746-750/T790M, cells depend on it); assay: Cell proliferation/growth MTS assay in EGFR mutant Ba/F3 cells; settings: 72 hours, read-out: IC50 (nM) in Ba/F3 Cells, EGFR Del 19/T790M
Sequence of Ba/F3 cells EGFR Del 19/T790M (P00533 with tags, fused parts or gaps DEL746-750/T790M): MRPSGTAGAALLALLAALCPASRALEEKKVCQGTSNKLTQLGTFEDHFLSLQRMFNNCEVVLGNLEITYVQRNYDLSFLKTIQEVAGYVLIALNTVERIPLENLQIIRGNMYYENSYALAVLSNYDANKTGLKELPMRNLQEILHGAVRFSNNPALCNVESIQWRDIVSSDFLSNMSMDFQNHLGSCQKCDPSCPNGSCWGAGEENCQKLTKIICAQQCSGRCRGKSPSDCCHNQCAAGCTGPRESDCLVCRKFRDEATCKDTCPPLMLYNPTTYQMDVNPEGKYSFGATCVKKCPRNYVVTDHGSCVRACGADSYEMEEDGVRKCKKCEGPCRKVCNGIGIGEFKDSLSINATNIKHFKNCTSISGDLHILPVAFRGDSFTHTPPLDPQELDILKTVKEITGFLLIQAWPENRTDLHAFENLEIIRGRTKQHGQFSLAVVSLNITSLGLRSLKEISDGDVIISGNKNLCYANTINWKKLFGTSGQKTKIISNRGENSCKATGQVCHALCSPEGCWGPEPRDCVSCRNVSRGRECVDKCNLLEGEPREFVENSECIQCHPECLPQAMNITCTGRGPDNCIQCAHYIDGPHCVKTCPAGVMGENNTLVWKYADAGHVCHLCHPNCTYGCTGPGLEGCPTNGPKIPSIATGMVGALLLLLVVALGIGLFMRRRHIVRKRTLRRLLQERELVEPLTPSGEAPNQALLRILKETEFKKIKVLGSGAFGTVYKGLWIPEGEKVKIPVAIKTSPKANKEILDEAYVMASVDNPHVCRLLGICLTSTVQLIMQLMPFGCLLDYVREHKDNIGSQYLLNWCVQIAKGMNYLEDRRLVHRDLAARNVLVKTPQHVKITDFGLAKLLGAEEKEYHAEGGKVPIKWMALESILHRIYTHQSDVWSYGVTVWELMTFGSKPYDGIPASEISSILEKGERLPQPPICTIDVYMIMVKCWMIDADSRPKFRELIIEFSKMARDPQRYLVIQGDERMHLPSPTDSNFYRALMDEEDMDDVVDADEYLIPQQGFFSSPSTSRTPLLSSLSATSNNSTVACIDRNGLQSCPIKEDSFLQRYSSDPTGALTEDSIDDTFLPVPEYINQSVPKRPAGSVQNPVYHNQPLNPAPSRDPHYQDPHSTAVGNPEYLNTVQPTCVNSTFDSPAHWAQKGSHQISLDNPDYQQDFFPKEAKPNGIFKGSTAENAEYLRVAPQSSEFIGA
Text: (§1) The EGFR and iERBB2 mutant Ba/F3 cells and the NIH-3T3 cells have been previously characterized (Engelman, J. A. et al. Cancer Res 67, 11924-32 (2007); Yuza, Y. et al. Cancer Biol Ther 6 (2007)). The EGFR C797S and the ERBB2 T798I mutations are introduced using site directed mutagenesis using the Quick Change Site-Directed Mutagenesis kit (Stratagene; La Jolla, Calif.) according to the manufacturer's instructions (Mukohara, T. et al. J Natl Cancer Inst 97, 1185-94 (2005)). The oligonucleotide sequences are available upon request. All constructs are confirmed by DNA sequencing. The constructs are shuttled into the retroviral vector JP1540 using the BD Creator™ System (BD Biosciences). Ba/F3 of NIH-3T3 cells are infected with retrovirus according to standard protocols, as described previously (Engelman, J. A. et al. Proc Natl Acad Sci USA 102, 3788-93 (2005); Zhao, J. J. et al. Cancer Cell 3, 483-95 (2003)). Stable populations are obtained by selection in puromycin (2 μg/ml).
(§2) Growth and inhibition of growth is assessed by MTS assay. This assay, a colorimetric method for determining the number of viable cells, is based on the bioreduction of 3-(4,5-dimethylthiazol-2-yl)-5-(3-carboxymethoxyphenyl)-2-(4-sulfophenyl)-2H-tetrazolium (MTS) by cells to a formazan product that is soluble in cell culture medium, can be detected spectrophotometrically and was performed according to previously established methods (Mukohara, T. et al. J Natl Cancer Inst 97, 1185-94 (2005); Paez, J. G. et al. Science 304, 1497 500 (2004); Engelman, J. A. et al. J Clin Invest 116, 2695-2706 (2006). NSCLC or Ba/F3 cells are exposed to treatment for 72 hours and the number of cells used per experiment determined empirically and has been previously established. All experimental points are set up in six to twelve wells and all experiments are repeated at least three times. […] The curves are fitted using a non-linear regression model with a sigmoidal dose response.
(§3) Activity of various compounds of the invention was determined in vitro in EGFR mutant Ba/F3 cells according to the procedures set forth in Example 1.

[2] = molecular target: Ba/F3 cells EGFR L858R/T790M (Homo sapiens, UniProt P00533, T790M/L858R, cells depend on it); assay: as above; settings: 72 hours, read-out: IC50 (nM) in Ba/F3 Cells, EGFR L858R/T790M
Sequence of Ba/F3 cells EGFR L858R/T790M (P00533 whole entry T790M/L858R): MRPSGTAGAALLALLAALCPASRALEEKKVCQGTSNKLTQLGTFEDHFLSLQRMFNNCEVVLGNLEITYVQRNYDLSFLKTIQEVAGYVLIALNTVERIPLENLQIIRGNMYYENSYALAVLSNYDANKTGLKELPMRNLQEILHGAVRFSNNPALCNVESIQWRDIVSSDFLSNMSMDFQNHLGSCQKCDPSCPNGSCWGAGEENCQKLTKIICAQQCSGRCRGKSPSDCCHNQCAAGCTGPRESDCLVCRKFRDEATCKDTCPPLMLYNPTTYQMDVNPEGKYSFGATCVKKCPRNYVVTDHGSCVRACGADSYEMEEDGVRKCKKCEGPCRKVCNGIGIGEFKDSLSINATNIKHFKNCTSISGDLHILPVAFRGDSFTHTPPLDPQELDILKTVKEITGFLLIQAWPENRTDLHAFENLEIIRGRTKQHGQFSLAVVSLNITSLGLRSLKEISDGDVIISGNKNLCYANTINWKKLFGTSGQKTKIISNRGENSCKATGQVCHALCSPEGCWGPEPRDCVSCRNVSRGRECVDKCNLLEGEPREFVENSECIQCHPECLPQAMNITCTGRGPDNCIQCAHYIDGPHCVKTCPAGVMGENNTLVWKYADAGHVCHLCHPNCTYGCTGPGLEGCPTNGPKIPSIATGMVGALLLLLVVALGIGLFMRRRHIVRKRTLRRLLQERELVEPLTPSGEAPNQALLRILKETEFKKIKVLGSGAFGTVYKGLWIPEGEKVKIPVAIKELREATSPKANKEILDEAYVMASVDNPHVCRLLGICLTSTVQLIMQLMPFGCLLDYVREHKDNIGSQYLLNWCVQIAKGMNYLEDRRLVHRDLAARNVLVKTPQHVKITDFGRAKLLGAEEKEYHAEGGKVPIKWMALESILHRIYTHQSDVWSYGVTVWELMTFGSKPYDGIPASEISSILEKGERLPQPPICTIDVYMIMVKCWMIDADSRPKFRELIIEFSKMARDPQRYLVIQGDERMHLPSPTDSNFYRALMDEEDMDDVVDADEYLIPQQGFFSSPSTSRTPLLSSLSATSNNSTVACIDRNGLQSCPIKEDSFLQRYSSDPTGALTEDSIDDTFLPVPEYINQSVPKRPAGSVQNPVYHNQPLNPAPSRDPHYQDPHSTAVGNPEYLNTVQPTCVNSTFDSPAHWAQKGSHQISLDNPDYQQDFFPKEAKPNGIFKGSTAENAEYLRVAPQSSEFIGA
Text: as §1, §2, §3

[3] = molecular target: Ba/F3 cells EGFR vIII (Homo sapiens, UniProt P00533, DELINS30-297G, cells depend on it); assay: as above; settings: 72 hours, read-out: IC50 (nM) in Ba/F3 Cells, EGFR vIII
Sequence of Ba/F3 cells EGFR vIII (P00533 with tags, fused parts or gaps DELINS30-297G): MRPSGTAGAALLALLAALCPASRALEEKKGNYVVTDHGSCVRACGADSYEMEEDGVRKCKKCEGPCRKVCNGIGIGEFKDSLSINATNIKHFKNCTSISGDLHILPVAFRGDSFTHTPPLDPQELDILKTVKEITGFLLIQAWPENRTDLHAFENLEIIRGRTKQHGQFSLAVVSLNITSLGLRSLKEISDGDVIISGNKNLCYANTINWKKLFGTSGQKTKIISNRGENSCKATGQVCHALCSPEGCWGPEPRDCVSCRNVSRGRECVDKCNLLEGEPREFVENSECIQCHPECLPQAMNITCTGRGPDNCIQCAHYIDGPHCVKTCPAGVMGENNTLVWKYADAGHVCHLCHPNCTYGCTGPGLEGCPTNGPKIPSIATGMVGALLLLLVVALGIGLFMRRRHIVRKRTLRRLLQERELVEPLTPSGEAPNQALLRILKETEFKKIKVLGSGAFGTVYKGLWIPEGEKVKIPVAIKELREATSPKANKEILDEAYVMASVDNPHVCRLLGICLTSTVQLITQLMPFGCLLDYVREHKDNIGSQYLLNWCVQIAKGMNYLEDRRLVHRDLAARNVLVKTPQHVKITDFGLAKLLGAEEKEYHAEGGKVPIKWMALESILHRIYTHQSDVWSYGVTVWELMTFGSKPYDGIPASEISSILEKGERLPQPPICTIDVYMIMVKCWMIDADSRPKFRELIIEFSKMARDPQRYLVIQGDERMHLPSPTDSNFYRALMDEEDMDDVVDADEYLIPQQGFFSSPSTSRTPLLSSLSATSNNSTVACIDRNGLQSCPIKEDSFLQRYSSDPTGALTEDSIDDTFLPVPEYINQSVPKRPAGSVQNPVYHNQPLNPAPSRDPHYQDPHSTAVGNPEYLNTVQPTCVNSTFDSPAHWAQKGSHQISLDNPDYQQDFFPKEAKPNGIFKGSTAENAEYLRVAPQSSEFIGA
Text: as §1, §2, §3

[4] = test system: PC9 (EGFR Del 19); assay: Cell proliferation/growth MTS assay in NSCLC cell lines; settings: 72 hours
Text: (§4) The EGFR mutant NSCLC cell lines HCC827 (del E746_A750), H3255 (L858R), HCC827 GR (del E746_A750/MET amplified), H1975 (L858R/T790M) and PC9 (del E746_A750) have been previously characterized (Amann., J. et al. Cancer Res 65, 226-35 (2005); Engelman, J. A. et al. Science 316, 1039-43 (2007); Ono, M. et al. Mol Cancer Ther 3, 465-72 (2004); Ogino, A. et al. Cancer Res 67, 7807-14 (2007)). The PC9 GR (del E746_A750/T790M) cells are generated and verified to contain del E746_A750 in cis with T790M. The ERBB2 amplified (Calu-3 and H1819) and mutant (H1781) are obtained from ATCC. […]
(§5) Growth and inhibition of growth is assessed by MTS assay. This assay, a colorimetric method for determining the number of viable cells, is based on the bioreduction of 3-(4,5-dimethylthiazol-2-yl)-5-(3-carboxymethoxyphenyl)-2-(4-sulfophenyl)-2H-tetrazolium (MTS) by cells to a formazan product that is soluble in cell culture medium, can be detected spectrophotometrically and was performed according to previously established methods (Mukohara, T. et al. J Natl Cancer Inst 97, 1185-94 (2005); Paez, J. G. et al. Science 304, 1497 500 (2004); Engelman, J. A. et al. J Clin Invest 116, 2695-2706 (2006). NSCLC or Ba/F3 cells are exposed to treatment for 72 hours and the number of cells used per experiment determined empirically and has been previously established. […]

[5] = test system: PC9 GR (EGFR Del 19/T790M); assay: as above; settings: 72 hours
Text: as §4, §5

[6] = test system: A549 (KRAS G12); assay: as above; settings: Homo sapiens, 72 hours

SMILES | GI50 [1] [nM] | GI50 [2] [nM] | GI50 [3] [nM] | IC50 [4] [nM] | IC50 [5] [nM] | IC50 [6] [nM]
C=CC(=O)Nc1cccc(CNc2ncc(Cl)c(Nc3ccccc3S(=O)(=O)C(C)C)n2)c1 [Compound XIII-3, N-(3-(((5-chloro-4-((2-(isopropylsulfonyl)phenyl)amino)pyrimidin-2-yl)amino)methyl)phenyl)acrylamide] | 670 | 721 |  |  |  | 
C=CC(=O)Nc1ccc(OC)c(Nc2ncc(Cl)c(Nc3ccccc3C(=O)NC)n2)c1 [Compound XIII-2, 2-((2-((5-acrylamido-2-methoxyphenyl)amino)-5-chloropyrimidin-4-yl)amino)-N-methylbenzamide] | 56 | 65 | 570 | 118 | 104 | > 3300
C=CC(=O)Nc1cccc(Nc2ncc(Cl)c(Nc3ccccc3C(=O)NC)n2)c1 [Compound XIII-1, 2-((2-((3-acrylamidophenyl)amino)-5-chloropyrimidin-4-yl)amino)-N-methylbenzamide] | 3 | 6 | 3 |  |  | 814

Continued, values first:

GI50 [1] [nM] | GI50 [2] [nM] | GI50 [3] [nM] | IC50 [4] [nM] | IC50 [5] [nM] | IC50 [6] [nM] | SMILES
7 | 17 |  |  |  |  | C=CC(=O)Nc1cccc(Nc2ncc(Cl)c(Nc3ccccc3S(=O)(=O)C(C)C)n2)c1 [Compound XIII-4, N-(3-((5-chloro-4-((2-(isopropylsulfonyl)phenyl)amino)pyrimidin-2-yl)amino)phenyl)acrylamide]
11 | 9 |  |  |  |  | C=CC(=O)Nc1cccc(Nc2ncc(Cl)c(Nc3ccccc3S(=O)(=O)NC)n2)c1 [Compound XIII-5, N-(3-((5-chloro-4-((2-(N-methylsulfamoyl)phenyl)amino)pyrimidin-2-yl)amino)phenyl)acrylamide]
